This test deals with Brassica rapa subsp. oleifera. The experiment in a line: Inhibition of Brassica rapa subsp. oleifera root growth assessed as reduction of root length at 5 x 10^-5 M after 7 days by germination assay relative to control. Format: functional. Particulars: 168 h.

Among the data in ChEMBL document CHEMBL3045803, “Preparation and root growth-inhibitory activity of N-substituted 2-(2-chloroacetamido)-3-(furan-2-yl)propanamides” (2005) are inhibition values, retold here.

The structures appear in SMILES notation.

For `CCc1cccc(C)c1NC(=O)C(Cc1ccco1)NC(=O)CCl` (centres undefined), the inhibition at 50 µM is 67%.

Consider `O=C(CCl)NC(Cc1ccco1)C(=O)Nc1nc2ccccc2s1` (centres undefined), for which the inhibition at 50 µM was 58%. The value for `O=C(CCl)NC(Cc1ccco1)C(=O)Nc1ccc(Br)cc1` (centres undefined) was 29%.

Turning to `O=C(CCl)NC(Cc1ccco1)C(=O)Nc1nccs1` (centres undefined), the inhibition at 50 µM amounted to 57%. The value for `O=C(CCl)NC(Cc1ccco1)C(=O)Nc1ccccc1` (centres undefined) was 52%; that for `O=C(CCl)NC(Cc1ccco1)C(=O)Nc1ccc(Cl)cc1` (centres undefined) was 19%; that for `O=C(O)COc1ccc(Cl)cc1Cl` [2,4-DICHLOROPHENOXYACETIC ACID] was 97%. The value for `O=C(CCl)NC(Cc1ccco1)C(=O)Nc1cccc(Br)c1` (centres undefined) was 42%.

On to `CCOc1ccc2nc(NC(=O)C(Cc3ccco3)NC(=O)CCl)sc2c1` (centres undefined), for which the inhibition at 50 µM worked out at 34%.

Turning to `Cc1nc(NC(=O)C(Cc2ccco2)NC(=O)CCl)sc1C` (centres undefined), the inhibition at 50 µM stood at 25%. In the case of `O=C(CCl)NC(Cc1ccco1)C(=O)Nc1ncc([N+](=O)[O-])s1` (centres undefined), the inhibition at 50 µM came out at 37%.

Regarding `O=C(CCl)NC(Cc1ccco1)C(=O)Nc1ccc(F)cc1` (centres undefined), the inhibition at 50 µM came to 37%. As for `O=C(CCl)NC(Cc1ccco1)C(=O)Nc1ncc(Br)s1` (centres undefined), the inhibition at 50 µM is 69%. The value for `O=C(CCl)NC(Cc1ccco1)C(=O)Nc1cccc(F)c1` (centres undefined) was 33%; that for `O=C(CCl)NC(Cc1ccco1)C(=O)Nc1nc(-c2ccc(Cl)cc2)cs1` (centres undefined) was 52%; that for `CCc1ccc(NC(=O)C(Cc2ccco2)NC(=O)CCl)cc1` (centres undefined) was 41%. On to `CCc1cccc(NC(=O)C(Cc2ccco2)NC(=O)CCl)c1` (centres undefined), for which the inhibition at 50 µM came out at 35%.

For the compound `Cc1cccc(C)c1NC(=O)C(Cc1ccco1)NC(=O)CCl` (centres undefined), the inhibition at 50 µM worked out at 62%. The value for `CCc1ccccc1NC(=O)C(Cc1ccco1)NC(=O)CCl` (centres undefined) was 20%. The value for `CCc1cccc(CC)c1NC(=O)C(Cc1ccco1)NC(=O)CCl` (centres undefined) was 76%. The value for `O=C(CCl)NC(Cc1ccco1)C(=O)Nc1nc2c(Cl)cccc2s1` (centres undefined) was 42%; that for `Cc1cnc(NC(=O)C(Cc2ccco2)NC(=O)CCl)s1` (centres undefined) was 20%.

For the compound `Cc1csc(NC(=O)C(Cc2ccco2)NC(=O)CCl)n1` (centres undefined), the inhibition at 50 µM came to 56%. The value for `O=C(CCl)NC(Cc1ccco1)C(=O)Nc1cccc(Cl)c1` (centres undefined) was 30%.
